According to US8916702B2 (priority 2012, dated 2014):
Like-named read-outs stand apart in the source and are kept apart here.

Tested on: HCV pseudoparticles (genotype 1a HCV E1 and E2 envelope, H77C isolate)
Experiment: microbe, parasite or virus in culture
Type: cell-based
Conditions: Hepatitis C virus
[1] = Huh-7, 48 h, read-out: Activity (EC50 class), HCV pseudoparticle infection of Huh7 cells, luciferase 2 days after infection, EC50 expressed as class A/B
[2] = Huh-7, 48 h, HCV pseudoparticles (genotype 1a, H77C) in Huh7 cells, average of duplicate, luciferase 2 days after infection
[3] = Huh-7, read-out: Activity (EC50 class), HCV pseudoparticles (genotype 1a, H77C) in Huh7 cells, EC50 expressed as class A/B
[4] = Huh-7, 48 h, read-out: Activity (EC50 class), HCV pseudoparticles, Huh7 cells, luciferase 2 days after infection, average of duplicates
[5] = Huh-7, 48 h, HCV pseudoparticle infection of Huh7 cells, luciferase 2 days after infection, average of duplicates

| SMILES | EC50 [1] | EC50 [3] | also measured |
| --- | --- | --- | --- |
| COC(=O)[C@H](CCNC(=O)C(=O)NCC1CCCN(C(=O)OC(C)(C)C)C1)NC(=O)c1ccc(Nc2nc(NC3(c4ccc(Cl)cc4)CC3)nc(OCC(F)(F)F)n2)cc1 (stereo partly shown) [Compound 1200] | 0.01 to 10 nM |  |  |
| O=C(NC/C(=N/C(=O)c1ccc(Nc2nc(NC3(c4ccc(Cl)cc4)CC3)nc(OCC(F)(F)F)n2)cc1)C(=O)O)C(=O)Nc1ccc(OCC(F)(F)F)cc1 [Compound 3164] |  | 0.01 to 10 nM | EC50 [2]: 0.68 nM |
| CS(=O)(=O)c1cccc(NC(=O)C(=O)NCC[C@H](NC(=O)c2ccc(Nc3nc(NC4(c5ccc(Cl)cc5)CC4)nc(OCC(F)(F)F)n3)cc2)C(=O)O)c1 [Compound 3632] |  |  | EC50 [4]: 0.01 to 10 nM |
| O=C(NCC[C@H](NC(=O)c1ccc(Nc2nc(NC3(c4ccc(Cl)cc4)CC3)nc(OCC(F)(F)F)n2)cc1)C(=O)O)C(=O)Nc1ccccc1 [Compound 1433] | 0.01 to 10 nM |  |  |
| COC(=O)[C@H](CCNC(=O)C(=O)Nc1cc(F)ccc1F)NC(=O)c1ccc(Nc2nc(NC3(c4ccc(Cl)cc4)CC3)nc(OCC(F)(F)F)n2)cc1 [Compound 1503] | 0.01 to 10 nM |  |  |
| CCc1cccc(NC(=O)C(=O)NCC[C@H](NC(=O)c2ccc(Nc3nc(NC4(c5ccc(Cl)cc5)CC4)nc(OCC(F)(F)F)n3)cc2)C(=O)O)c1 [Compound 3614] |  |  | EC50 [4]: 0.01 to 10 nM |
| CC(C)(CNC(=O)C(=O)Nc1ccc(C(F)(F)F)cc1C#N)CNC(=O)c1ccc(Nc2nc(NC3(c4ccc(Cl)cc4)CC3)nc(OCC(F)(F)F)n2)cc1 [Compound 3435] |  | 0.01 to 10 nM |  |
| O=C(NC[C@H](NC(=O)c1ccc(Nc2nc(NC3(c4ccc(Cl)cc4)CC3)nc(OCC(F)(F)F)n2)cc1)C(=O)O)C(=O)Nc1cccc(CCc2ccccn2)c1 [Compound 3769] |  |  | EC50 [4]: 0.01 to 10 nM |
| CC(C)(CNC(=O)C(=O)NCC1(CN2CCCC2)CC1)CNC(=O)c1ccc(Nc2nc(NC3(c4ccc(Cl)cc4)CC3)nc(OCC(F)(F)F)n2)cc1 [Compound 1036] | 0.01 to 10 nM |  |  |
| CC(C)(CNC(=O)C(=O)NC1(c2ccc(F)cc2)CC1)CNC(=O)c1ccc(Nc2nc(NC3(c4ccc(Cl)cc4)CC3)nc(OCC(F)(F)F)n2)cc1 [Compound 3013] |  | 0.01 to 10 nM | EC50 [2]: 0.066 nM |
| CCOC(=O)[C@H](CCCNC(=O)C(=O)N(C)C)NC(=O)c1ccc(Nc2nc(NC3(c4ccc(Cl)cc4)CC3)nc(OCC(F)(F)F)n2)cc1 [Compound 1031, (S)-ethyl 2-(4-(4-(1-(4-chlorophenyl)cyclopropylamino)-6-(2,2,2-trifluoroethoxy)-1,3,5-triazin-2-ylamino)benzamido)-5-(2-(dimethylamino)-2-oxoacetamido)pentanoate] | 0.01 to 10 nM |  |  |
| CC(C)(CNC(=O)C(=O)Nc1ccc(-c2cccc(Cl)c2)cc1)CNC(=O)c1ccc(Nc2nc(NC3(c4ccc(Cl)cc4)CC3)nc(OCC(F)(F)F)n2)cc1 [Compound 1588] | 0.01 to 10 nM |  |  |
| COC(=O)[C@H](CNC(=O)C(=O)NCc1cc(F)ccc1F)NC(=O)c1ccc(Nc2nc(NC3(c4ccc(Cl)cc4)CC3)nc(OCC(F)(F)F)n2)cc1 [Compound 1154] | 0.01 to 10 nM |  | EC50 [5]: 1.07 nM |
| CC(C)(CNC(=O)C(=O)Nc1ccc(C(=O)c2ccc(N)cc2)cc1)CNC(=O)c1ccc(Nc2nc(NC3(c4ccc(Cl)cc4)CC3)nc(OCC(F)(F)F)n2)cc1 [Compound 3264] |  | 0.01 to 10 nM | EC50 [2]: 0.24 nM |
| COC(=O)[C@H](CNC(=O)C(=O)Nc1cccc(S(C)(=O)=O)c1)NC(=O)c1ccc(Nc2nc(NC3(c4ccc(Cl)cc4)CC3)nc(OCC(F)(F)F)n2)cc1 [Compound 3707] |  |  | EC50 [4]: 0.01 to 10 nM |
| COC(=O)[C@H](CNC(=O)C(=O)NCC1OCCc2ccccc21)NC(=O)c1ccc(Nc2nc(NC3(c4ccc(Cl)cc4)CC3)nc(OCC(F)(F)F)n2)cc1 (stereo partly shown) [Compound 1297] | 0.01 to 10 nM |  |  |
| O=C(NCC[C@H](NC(=O)c1ccc(Nc2nc(NC3(c4ccc(Cl)cc4)CC3)nc(OCC(F)(F)F)n2)cc1)C(=O)O)C(=O)NCc1ccccc1 [Compound 1187] | 0.01 to 10 nM |  | EC50 [5]: 0.08 nM |
| CC(C)(CNC(=O)C(=O)Nc1ccc(C#N)cc1)CNC(=O)c1ccc(Nc2nc(NC3(c4ccc(Cl)cc4)CC3)nc(OCC(F)(F)F)n2)cc1F [Compound 3516] |  | 0.01 to 10 nM |  |
| O=C(NCC[C@H](NC(=O)c1ccc(Nc2nc(NC3(c4ccc(Cl)cc4)CC3)nc(OCC(F)(F)F)n2)cc1)C(=O)O)C(=O)Nc1cccc(Cl)c1 [Compound 1500] | 0.01 to 10 nM |  |  |
| CONC(=O)C(=O)NCC(C)(C)CNC(=O)c1ccc(Nc2nc(NC3(c4ccc(Cl)cc4)CC3)nc(OCC(F)(F)F)n2)cc1 [Compound 3002] |  | 0.01 to 10 nM | EC50 [2]: 0.044 nM |
| COC(=O)[C@@H](CCNC(=O)C(=O)Nc1cccc(C(=O)Nc2ccccc2)c1)NC(=O)c1ccc(Nc2nc(NC3(c4ccc(Cl)cc4)CC3)nc(OCC(F)(F)F)n2)cc1 [Compound 3575] |  | 0.01 to 10 nM |  |
| Cc1ccc(NC(=O)C(=O)NCC(C)(C)CNC(=O)c2ccc(Nc3nc(NC4(c5ccc(Cl)cc5)CC4)nc(OCC(F)(F)F)n3)cc2)cc1 [Compound 1536] | 0.01 to 10 nM |  |  |
| COC(=O)[C@H](CNC(=O)C(=O)N[C@H]1C[C@@H]2C[C@@H]([C@@H]1C)C2(C)C)NC(=O)c1ccc(Nc2nc(NC3(c4ccc(Cl)cc4)CC3)nc(OCC(F)(F)F)n2)cc1 [Compound 1066] | 0.01 to 10 nM |  |  |

| SMILES | EC50 [1] | EC50 [3] | also measured |
| --- | --- | --- | --- |
| COc1ccc(C(NC(=O)C(=O)NCC[C@H](NC(=O)c2ccc(Nc3nc(NC4(c5ccc(Cl)cc5)CC4)nc(OCC(F)(F)F)n3)cc2)C(=O)O)C2CC2)cc1 (stereo partly shown) [Compound 1437] | 0.01 to 10 nM |  |  |
| CC(C)(C)OC(=O)NC1CCC(NC(=O)C(=O)NC[C@H](NC(=O)c2ccc(Nc3nc(NC4(c5ccc(Cl)cc5)CC4)nc(OCC(F)(F)F)n3)cc2)C(=O)O)CC1 (stereo partly shown) [Compound 1085] | 0.01 to 10 nM |  |  |
| COc1ncccc1NC(=O)C(=O)NCC[C@H](NC(=O)c1ccc(Nc2nc(NC3(c4ccc(Cl)cc4)CC3)nc(OCC(F)(F)F)n2)cc1)C(=O)O [Compound 1261] | 0.01 to 10 nM |  |  |
| COC(=O)[C@@H](CCNC(=O)C(=O)Nc1ccccc1Cl)NC(=O)c1ccc(Nc2nc(NC3(c4ccc(Cl)cc4)CC3)nc(OCC(F)(F)F)n2)cc1 [Compound 1535] | 0.01 to 10 nM |  |  |
| Cc1ccc(COc2nc(Nc3ccc(C(=O)NCC(C)(C)CNC(=O)C(=O)Nc4ccc(C)cc4)cc3)nc(NC3(c4ccc(Cl)cc4)CC3)n2)cc1 [Compound 3848] |  |  | EC50 [4]: 0.01 to 10 nM |
| CCOCCOc1ccc(NC(=O)C(=O)NC[C@H](NC(=O)c2ccc(Nc3nc(NC4(c5ccc(Cl)cc5)CC4)nc(OCC(F)(F)F)n3)cc2)C(=O)OC)cc1 [Compound 3192] |  | 0.01 to 10 nM |  |
| CC(C)(CNC(=O)C(=O)NS(C)(=O)=O)CNC(=O)c1ccc(Nc2nc(NC3(c4ccc(Cl)cc4)CC3)nc(OCC(F)(F)F)n2)cc1 [Compound 3031] |  | 0.01 to 10 nM |  |
| O=C(NC[C@H](NC(=O)c1ccc(Nc2nc(NC3(c4ccc(Cl)cc4)CC3)nc(OCC(F)(F)F)n2)cc1)C(=O)Cl)C(=O)Nc1cccc(Oc2ccccn2)c1 [Compound 3781] |  |  | EC50 [4]: 0.01 to 10 nM |
| COC(=O)[C@H](CCNC(=O)C(=O)Nc1cccc(C#CC(C)(C)Cl)c1)NC(=O)c1ccc(Nc2nc(NC3(c4ccc(Cl)cc4)CC3)nc(OCC(F)(F)F)n2)cc1 [Compound 3600] |  |  | EC50 [4]: 0.01 to 10 nM |
| CCc1ccc(NC(=O)C(=O)NCC[C@H](NC(=O)c2ccc(Nc3nc(NC4(c5ccc(Cl)cc5)CC4)nc(OCC(F)(F)F)n3)cc2)C(=O)OC)cc1 [Compound 3330] |  | 0.01 to 10 nM |  |
| CCC(CC)CNC(=O)C(=O)NCC[C@H](NC(=O)c1ccc(Nc2nc(NC3(c4ccc(Cl)cc4)CC3)nc(OCC(F)(F)F)n2)cc1)C(=O)OC [Compound 1202] | 0.01 to 10 nM |  |  |
| Cn1nccc1NC(=O)C(=O)NCC[C@H](NC(=O)c1ccc(Nc2nc(NC3(c4ccc(Cl)cc4)CC3)nc(OCC(F)(F)F)n2)cc1)C(=O)O [Compound 1281] | 0.01 to 10 nM |  |  |
| O=C(NC[C@H](NC(=O)c1ccc(Nc2nc(NC3(c4ccc(Cl)cc4)CC3)nc(OCC(F)(F)F)n2)cc1)C(=O)O)C(=O)NC1Cc2ccccc2C1 [Compound 1403] | 0.01 to 10 nM |  |  |
| CCc1cccc(NC(=O)C(=O)NC[C@H](NC(=O)c2ccc(Nc3nc(NC4(c5ccc(Cl)cc5)CC4)nc(OCC(F)(F)F)n3)cc2)C(=O)OC)c1 [Compound 3688] |  |  | EC50 (Huh-7, 48 h, HCV pseudoparticles, Huh7 cells, luciferase 2 days after infection, average of duplicates): 0.97 nM; EC50 [4]: 0.01 to 10 nM |
| COC(=O)[C@H](CCNC(=O)C(=O)Nc1ccc(C)cc1)NC(=O)c1ccc(Nc2nc(NC3(c4ccc(Cl)cc4)CC3)nc(OCC(F)(F)F)n2)cc1 [Compound 3114] |  | 0.01 to 10 nM | EC50 [2]: 0.084 nM |
| O=C(NC[C@H](NC(=O)c1ccc(Nc2nc(NC3(c4ccc(Cl)cc4)CC3)nc(OCC(F)(F)F)n2)cc1)C(=O)O)C(=O)Nc1cccc(CN2CCCC2)c1 [Compound 3778] |  |  | EC50 [4]: 0.01 to 10 nM |
| COC(=O)[C@H](CCNC(=O)C(=O)Nc1ccc(N(C)c2nc(C)cc(C)n2)cc1)NC(=O)c1ccc(Nc2nc(NC3(c4ccc(Cl)cc4)CC3)nc(OCC(F)(F)F)n2)cc1 [Compound 3133] |  | 0.01 to 10 nM |  |
| O=C(NC/C(=N/C(=O)c1ccc(Nc2nc(NC3(c4ccc(Cl)cc4)CC3)nc(OCC(F)(F)F)n2)cc1)C(=O)O)C(=O)Nc1ccc(C2CCCCC2)cc1 [Compound 3147] |  | 0.01 to 10 nM |  |
| O=C(NCC(O)CNC(=O)c1ccc(Nc2nc(NC3(c4ccc(Cl)cc4)CC3)nc(OCC(F)(F)F)n2)cc1)C(=O)Nc1ccccc1 (stereo not shown) [Compound 3460] |  | 0.01 to 10 nM | EC50 [2]: 0.016 nM |
| CC(C)(C)CC(=O)N[C@H]1CC[C@@H](CNC(=O)C(=O)NC[C@H](NC(=O)c2ccc(Nc3nc(NC4(c5ccc(Cl)cc5)CC4)nc(OCC(F)(F)F)n3)cc2)C(=O)O)CC1 [Compound 1469] | 0.01 to 10 nM |  | EC50 [5]: 2.3 nM |
| CCC1CCC(NC(=O)C(=O)NCC[C@H](NC(=O)c2ccc(Nc3nc(NC4(c5ccc(Cl)cc5)CC4)nc(OCC(F)(F)F)n3)cc2)C(=O)O)CC1 (stereo partly shown) [Compound 1121] | 0.01 to 10 nM |  |  |
| CC(CNC(=O)C(=O)NC[C@H](NC(=O)c1ccc(Nc2nc(NC3(c4ccc(Cl)cc4)CC3)nc(OCC(F)(F)F)n2)cc1)C(=O)O)c1ccccc1 (stereo partly shown) [Compound 1395] | 0.01 to 10 nM |  |  |
